The text below walks through data of patent publication US20230190781A1, “ADEMETIONINE AND CANNABIDIOL BASED SOLID PHARMACEUTICAL COMPOSITION AND METHOD FOR PREPARING IT” (priority 2020, published 2023).

Series [1] can be described thus: Stability of ademetionine in the compositions. The format is physicochemical. As to conditions: +40° C. and 75% RH. The protocol:
The compositions prepared according to the previous examples were placed in dark glass jars in cabinets with temperature and relative humidity control (+40° C. and 75% RH), periodically checking the content of active substances. The stability of the raw material is used as a reference.

Series [2] is described as follows: Residual humidity according to Karl-Fisher during processing under vacuum. It is filed as physicochemical. As to conditions: Phase: dosage. The method, then:
It was operated as described in Example 3, but the step of mixing the active substances was carried out under vacuum, as described in Example 11.

Molecules are shown by their SMILES.

Take `C[S+](CC[C@H](N)C(=O)[O-])C[C@H]1O[C@@H](n2cnc3c(N)ncnc32)[C@H](O)[C@@H]1O` (stereo partly drawn) [Ademetionine, S,S-adenosyl-L-methionine]: the “ademetionine content, Time (months) 0” value in series [1] (dark glass jars, 0 months) was found to be 51.5. In series [1] (dark glass jars, 1 month), the “ademetionine content, Time (months) 1” value was found to be 51.0. Further, the “ademetionine content, Time (months) 2” value in series [1] (dark glass jars, 2 months) is 49.6. Moreover, the “ademetionine content, Time (months) 3” value in series [1] (dark glass jars, 3 months) is reported as 48.8. For the same compound, the “% residual ion” value in series [1] (active substance content after three months as a percentage with respect to time zero) is reported as 94.8%. Moreover, the “KF: residual humidity” value in series [2] was found to be 2.7% w/w.
